Results from patent publication US12493040B2, “Cancer detection method using sense of smell of nematode” (HIROTSU BIO SCIENCE INC., priority 2013, dated 2025).

System: RNAi-treated eri-1 (mg366) nematodes
Test: RNAi screening of olfactory receptor genes: chemotaxis assay of RNAi-treated nematodes to odorants
Assay type: in vivo, Caenorhabditis elegans
Conditions: low concentration of attractant
Procedure, shortened: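 eri-1 (mg366) worms knocked down by feeding RNAi (Ahringer library) on IPTG/ampicillin NGM plates with E. coli for 4 days, then tested for chemotaxis, 30–50 worms per assay. Odorants at 1 μl of 10^−3 or 10^−4 dilution, or 1 and 5 μl undiluted. Hits scored by z score, thresholds ±1.96 (P<0.05) or ±0.96.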

c1cnccn1 [pyrazine]
chemotaxis index (Control nematodes): 0.49 ± 0.019 | chemotaxis index (srh-10 RNAi-treated nematodes): 0.67 | chemotaxis index (srh-11 RNAi-treated nematodes): 0.87 | chemotaxis index (srh-15 RNAi-treated nematodes): 0.78 | chemotaxis index (srh-16 RNAi-treated nematodes): 0.82 | chemotaxis index (srh-18 RNAi-treated nematodes): 0.73 | chemotaxis index (srh-19 RNAi-treated nematodes): 0.33 | chemotaxis index (srh-22 RNAi-treated nematodes): 0.82 | chemotaxis index (srh-23 RNAi-treated nematodes): 0.43 | chemotaxis index (srh-24 RNAi-treated nematodes): 0.57 | chemotaxis index (srh-25 RNAi-treated nematodes): 0.64 | chemotaxis index (srh-27 RNAi-treated nematodes): 0.32 | chemotaxis index (srh-28 RNAi-treated nematodes): 0.23 | chemotaxis index (srh-36 RNAi-treated nematodes): 0.53 | chemotaxis index (srh-37 RNAi-treated nematodes): 0.88 | chemotaxis index (srh-39 RNAi-treated nematodes): 0.11 | chemotaxis index (srh-40 RNAi-treated nematodes): 0.51 | chemotaxis index (srh-41 RNAi-treated nematodes): 0.71 | chemotaxis index (srh-44 RNAi-treated nematodes): 0.44 | chemotaxis index (srh-45 RNAi-treated nematodes): 0.74 | chemotaxis index (srh-46 RNAi-treated nematodes): −0.04 | chemotaxis index (srh-48 RNAi-treated nematodes): 0.15 | chemotaxis index (srh-49 RNAi-treated nematodes): 0.52 | chemotaxis index (srh-50 RNAi-treated nematodes): 0.83 | chemotaxis index (srh-51 RNAi-treated nematodes): 0.31 | chemotaxis index (srh-52 RNAi-treated nematodes): 0.55 | chemotaxis index (srh-55 RNAi-treated nematodes): 0.56 | chemotaxis index (srh-59 RNAi-treated nematodes): 0.04 | chemotaxis index (srh-60 RNAi-treated nematodes): 0.52 | chemotaxis index (srh-61 RNAi-treated nematodes): 0.27 | chemotaxis index (srh-67 RNAi-treated nematodes): 0.39 | chemotaxis index (srh-68 RNAi-treated nematodes): 0.36 | chemotaxis index (srh-69 RNAi-treated nematodes): 0.35 | chemotaxis index (srh-70 RNAi-treated nematodes): 0.41 | chemotaxis index (srh-71 RNAi-treated nematodes): 0.56 | chemotaxis index (srh-72 RNAi-treated nematodes): 0.50 | chemotaxis index (srh-74 RNAi-treated nematodes): 0.26 | chemotaxis index (srh-75 RNAi-treated nematodes): 0.71 | chemotaxis index (srh-77 RNAi-treated nematodes): 0.44 | chemotaxis index (srh-79 RNAi-treated nematodes): 0.12 | chemotaxis index (srh-80 RNAi-treated nematodes): 0.40 | chemotaxis index (srh-82 RNAi-treated nematodes): 0.31 | chemotaxis index (srh-83 RNAi-treated nematodes): 0.38 | chemotaxis index (srh-97 RNAi-treated nematodes): 0.66 | chemotaxis index (srh-99 RNAi-treated nematodes): 0.29 | chemotaxis index (srh-100 RNAi-treated nematodes): 0.30 | chemotaxis index (srh-104 RNAi-treated nematodes): −0.18 | chemotaxis index (srh-105 RNAi-treated nematodes): 0.32 | chemotaxis index (srh-109 RNAi-treated nematodes): 0.32 | chemotaxis index (srh-111 RNAi-treated nematodes): −0.23 | chemotaxis index (srh-113 RNAi-treated nematodes): 0.35 | chemotaxis index (srh-115 RNAi-treated nematodes): 0.19 | chemotaxis index (srh-116 RNAi-treated nematodes): 0.35 | chemotaxis index (srh-118 RNAi-treated nematodes): 0.36 | chemotaxis index (srh-119 RNAi-treated nematodes): 0.37 | chemotaxis index (srh-120 RNAi-treated nematodes): 0.54 | chemotaxis index (srh-122 RNAi-treated nematodes): 0.47 | chemotaxis index (srh-123 RNAi-treated nematodes): 0.63 | chemotaxis index (srh-125 RNAi-treated nematodes): 0.39 | chemotaxis index (srh-128 RNAi-treated nematodes): 0.54 | chemotaxis index (srh-129 RNAi-treated nematodes): 0.71 | chemotaxis index (srh-130 RNAi-treated nematodes): 0.22 | chemotaxis index (srh-214 RNAi-treated nematodes): 0.72 | chemotaxis index (srh-216 RNAi-treated nematodes): 0.60 | chemotaxis index (srh-217 RNAi-treated nematodes): 0.94 | chemotaxis index (srh-220 RNAi-treated nematodes): 0.40 | chemotaxis index (srh-222 RNAi-treated nematodes): 0.65 | chemotaxis index (srh-223 RNAi-treated nematodes): 0.43 | chemotaxis index (srh-227 RNAi-treated nematodes): 0.35 | chemotaxis index (srh-229 RNAi-treated nematodes): 0.09 | chemotaxis index (srh-233 RNAi-treated nematodes): 0.49 | chemotaxis index (srh-235 RNAi-treated nematodes): 0.73 | chemotaxis index (srh-236 RNAi-treated nematodes): 0.44 | chemotaxis index (srh-239 RNAi-treated nematodes): 0.54 | chemotaxis index (srh-241 RNAi-treated nematodes): 0.78 | chemotaxis index (srh-243 RNAi-treated nematodes): 0.48 | chemotaxis index (srh-244 RNAi-treated nematodes): 0.34 | chemotaxis index (srh-247 RNAi-treated nematodes): 0.49 | chemotaxis index (srh-250 RNAi-treated nematodes): 0.55 | chemotaxis index (srh-251 RNAi-treated nematodes): 0.32 | chemotaxis index (srh-252 RNAi-treated nematodes): 0.87 | chemotaxis index (srh-258 RNAi-treated nematodes): 0.44 | chemotaxis index (srh-261 RNAi-treated nematodes): 0.57 | chemotaxis index (srh-264 RNAi-treated nematodes): 0.85 | chemotaxis index (srh-266 RNAi-treated nematodes): −0.14 | chemotaxis index (srh-274 RNAi-treated nematodes): 0.12 | chemotaxis index (srh-275 RNAi-treated nematodes): 0.42 | chemotaxis index (srh-276 RNAi-treated nematodes): 0.44 | chemotaxis index (srh-277 RNAi-treated nematodes): 0.81 | chemotaxis index (srh-279 RNAi-treated nematodes): 0.37 | chemotaxis index (srh-281 RNAi-treated nematodes): 0.01 | chemotaxis index (srh-282 RNAi-treated nematodes): 0.55 | chemotaxis index (srh-283 RNAi-treated nematodes): 0.26 | chemotaxis index (srh-284 RNAi-treated nematodes): 0.49 | chemotaxis index (srh-291 RNAi-treated nematodes): 0.82 | chemotaxis index (srh-292 RNAi-treated nematodes): 0.43 | chemotaxis index (srh-293 RNAi-treated nematodes): 0.59 | chemotaxis index (srh-297 RNAi-treated nematodes): 0.29 | chemotaxis index (srh-298 RNAi-treated nematodes): 0.33 | chemotaxis index (srh-308 RNAi-treated nematodes): 0.15
